Assay results from PubChem BioAssay (NCI).
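How tested: cells in 96-well plates exposed to compound for 48 hours at five concentrations. TGI marks complete inhibition of growth.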

Assays:
Test in all cases: NCI anticancer screen, dose series, 48 h
[1] = tested on: LXFL 529 NSCLC
[2] = tested on: U251 CNS
[3] = tested on: M14 melanoma
[4] = tested on: CAKI-1 renal
[5] = tested on: HOP-92 NSCLC
[6] = tested on: MCF7 breast
[7] = tested on: NCI-H460 lung
[8] = tested on: SK-OV-3 ovarian
[9] = tested on: SF-295 CNS
[10] = tested on: SNB-75 CNS
[11] = tested on: HT29 colon
[12] = tested on: SK-MEL-2 melanoma
[13] = tested on: HCT-116 colon
[14] = tested on: MOLT-4 leukemia
[15] = tested on: SNB-78 CNS
[16] = tested on: UACC-257 melanoma
[17] = tested on: SF-268 CNS
[18] = tested on: K-562 leukemia
[19] = tested on: DMS 273 small cell lung
[20] = tested on: BT-549 breast
[21] = tested on: NCI-H23 lung
[22] = tested on: HCC-2998 colon
[23] = tested on: HS 578T breast
[24] = tested on: SK-MEL-28 melanoma
[25] = tested on: TK-10 renal
[26] = tested on: NCI-H226 lung
[27] = tested on: UACC-62 melanoma
[28] = tested on: MDA-MB-435
[29] = tested on: OVCAR-8 ovarian
[30] = tested on: RPMI-8226 leukemia
[31] = tested on: NCI/ADR-RES ovarian
[32] = tested on: EKVX NSCLC
[33] = tested on: OVCAR-4 ovarian
[34] = tested on: SNB-19 CNS
[35] = tested on: SF-539 CNS
[36] = tested on: MDA-MB-231 breast
[37] = tested on: SN12C renal
[38] = tested on: OVCAR-5 ovarian
[39] = tested on: RXF 393 renal
[40] = tested on: DLD-1 colon
[41] = tested on: SR leukemia
[42] = tested on: UO-31 renal
[43] = tested on: COLO 205 colon
[44] = tested on: LOX IMVI melanoma
[45] = tested on: T-47D breast
[46] = tested on: IGROV1 ovarian
[47] = tested on: ACHN renal
[48] = tested on: OVCAR-3 ovarian
[49] = tested on: KM12 colon
[50] = tested on: A498 renal
[51] = tested on: A549 NSCLC
[52] = tested on: DMS 114 small cell lung
[53] = tested on: MDA-N
[54] = tested on: KM20L2 colon
[55] = tested on: SW-620 colon
[56] = tested on: XF 498 CNS
[57] = tested on: NCI-H522 lung
[58] = tested on: PC-3 prostate
[59] = tested on: HOP-62 NSCLC
[60] = tested on: CCRF-CEM leukemia
[61] = tested on: 786-0 renal
[62] = tested on: HCT-15 colon
[63] = tested on: SK-MEL-5 melanoma
[64] = tested on: M19-MEL melanoma
[65] = tested on: DU-145 prostate
[66] = tested on: MALME-3M melanoma
[67] = tested on: HL-60(TB) leukemia

Work on `COc1ccc2nccc(NCCCN3CCN(CCCNc4ccnc5ccc(OC)cc45)CC3)c2c1` yielded a TGI [1] of 1.82 µM, a TGI [2] of 1.51 µM and a TGI [3] of 3.19 µM. The TGI [4] was 15 µM, the TGI [5] was 2.35 µM and the TGI [6] was 1.37 µM. It also gave a TGI [7] of 1.77 µM, a TGI [8] of 6.82 µM and a TGI [9] of 5.16 µM. The TGI [10] was 1.89 µM, the TGI [11] was 1.67 µM and the TGI [12] was 7.99 µM. For the same compound, the TGI [13] was 2.54 µM, the TGI [14] was 1.16 µM and the TGI [15] was 3.47 µM. It also gave a TGI [16] of 2.62 µM, a TGI [17] of 1.79 µM and a TGI [18] of 0.526 µM. For the same compound, the TGI [19] was 1.67 µM, the TGI [20] was 11.6 µM and the TGI [21] was 2.12 µM. For the same compound, the TGI [22] was 2.13 µM, the TGI [23] was 3.27 µM and the TGI [24] was 2.92 µM. For the same compound, the TGI [25] was 22 µM, the TGI [26] was 1.37 µM and the TGI [27] was 2.08 µM. For the same compound, the TGI [28] was 1.65 µM, the TGI [29] was 2.85 µM and the TGI [30] was 1.46 µM. The TGI [31] was greater than 100 µM, the TGI [32] was 7.93 µM and the TGI [33] was 2.55 µM. For the same compound, the TGI [34] was 5.98 µM, the TGI [35] was 0.681 µM and the TGI [36] was 4 µM. The TGI [37] was 1.45 µM, the TGI [38] was 4.74 µM and the TGI [39] was 3.69 µM. It also gave a TGI [40] of 5.12 µM, a TGI [41] greater than 26.2 µM and a TGI [42] of 25.8 µM. The TGI [43] was 1.24 µM, the TGI [44] was 1.49 µM and the TGI [45] was 4.65 µM. It also gave a TGI [46] of 3.69 µM, a TGI [47] of 11.4 µM and a TGI [48] of 7.73 µM. The TGI [49] was 1.79 µM, the TGI [50] was 13.5 µM and the TGI [51] was 6.55 µM. The TGI [52] was 1.91 µM, the TGI [53] was 1.52 µM and the TGI [54] was 3.37 µM. The TGI [55] was 1.04 µM, the TGI [56] was 1.56 µM and the TGI [57] was 0.633 µM. The TGI [58] was 4.15 µM, the TGI [59] was 4.4 µM and the TGI [60] was greater than 100 µM. It also gave a TGI [61] of 8.99 µM, a TGI [62] of 32.4 µM and a TGI [63] of 2.85 µM. For the same compound, the TGI [64] was 1.97 µM, the TGI [65] was 4.86 µM and the TGI [66] was 1.88 µM.

`C[C@]12C=CC(=O)C=C1[C@@H](F)C[C@H]1[C@@H]3CC[C@](O)(C(=O)CO)[C@@]3(C)C[C@H](O)[C@@]12F` showed a TGI [1] greater than 100 µM, a TGI [2] greater than 100 µM and a TGI [3] greater than 100 µM. The TGI [4] was greater than 100 µM, the TGI [5] was greater than 100 µM and the TGI [6] was greater than 100 µM. The TGI [7] was greater than 100 µM, the TGI [8] was greater than 100 µM and the TGI [9] was greater than 100 µM. The TGI [10] was greater than 100 µM, the TGI [11] was greater than 100 µM and the TGI [12] was greater than 100 µM. It also gave a TGI [13] greater than 100 µM, a TGI [14] greater than 100 µM and a TGI [15] greater than 100 µM. For the same compound, the TGI [16] was greater than 100 µM, the TGI [17] was greater than 100 µM and the TGI [18] was greater than 100 µM. For the same compound, the TGI [19] was greater than 100 µM, the TGI [20] was greater than 100 µM and the TGI [21] was greater than 100 µM. The TGI [22] was greater than 100 µM, the TGI [23] was greater than 100 µM and the TGI [24] was greater than 100 µM. The TGI [25] was greater than 100 µM, the TGI [26] was greater than 100 µM and the TGI [27] was greater than 100 µM. It also gave a TGI [28] greater than 100 µM, a TGI [29] greater than 100 µM and a TGI [30] greater than 100 µM. It also gave a TGI [31] greater than 100 µM, a TGI [32] greater than 100 µM and a TGI [33] greater than 100 µM. For the same compound, the TGI [34] was greater than 100 µM, the TGI [35] was greater than 100 µM and the TGI [36] was greater than 100 µM. The TGI [37] was greater than 100 µM, the TGI [38] was greater than 100 µM and the TGI [39] was greater than 100 µM. The TGI [40] was greater than 100 µM, the TGI [41] was greater than 100 µM and the TGI [42] was greater than 100 µM. The TGI [43] was greater than 100 µM, the TGI [44] was greater than 100 µM and the TGI [45] was greater than 100 µM. It also gave a TGI [46] greater than 100 µM, a TGI [47] greater than 100 µM and a TGI [67] greater than 100 µM. The TGI [48] was greater than 100 µM, the TGI [49] was greater than 100 µM and the TGI [50] was greater than 100 µM. The TGI [51] was greater than 100 µM, the TGI [52] was greater than 100 µM and the TGI [53] was greater than 100 µM. The TGI [54] was greater than 100 µM, the TGI [55] was greater than 100 µM and the TGI [56] was greater than 100 µM. It also gave a TGI [57] greater than 100 µM, a TGI [58] greater than 100 µM and a TGI [59] greater than 100 µM. It also gave a TGI [60] greater than 100 µM, a TGI [61] greater than 100 µM and a TGI [62] greater than 100 µM. For the same compound, the TGI [63] was greater than 100 µM, the TGI [64] was greater than 100 µM and the TGI [65] was greater than 100 µM. For the same compound, the TGI [66] was greater than 100 µM.
